Data published in patent publication US20100197610A1, “FRUCTOSE 1, 6 BISPHOSPHATE - A NOVEL ANTICONVULSANT DRUG” (Baylor College of Medicine, priority 2007, published 2010).

Columns and labels:
[1] = intravenous, rats (Nunes et al., 2003); cited from earlier work
[2] = cited from earlier work
[3] = system: PTZ-induced generalized tonic-clonic seizures; test: PTZ model of acute seizures; format: in vivo, Sprague Dawley rats
Experimental: (§1) All animal experiments were carried out in accordance with the National Institutes of Health guide for the care and use of laboratory animals (NIH publication 8023, revised 1996) and with the approval of the local Animal Use Committee. Unless indicated, all chemicals were obtained from Sigma Chemical Co (St. Louis Mo.). Male, Sprague Dawley rats weighing 50-74 g (young) or 147-309 g (adult) were used in this study. Acute seizures were induced by kainic acid (KA; Ocean Produce Int., Canada), pilocarpine or pentylenetetrazole (PTZ) as previously described (Lian et al 2006). These models were chosen because they initiate seizures by different mechanisms and the seizures have a relatively gradual onset compared to seizures initiated by stimulation. There was no difference in the body weight of the animals receiving the different convulsants. For pilocarpine, kainic acid and PTZ, the mean weights were 219±5 g (range 163-275 g), 215±7 g (range 183-258 g), and 216±13 g (range 147-309 g), respectively. The animals in the drug treatment groups were not different in weight from the animals in the control groups.
(§2) After administration of KA (10 mg/kg, ip), pilocarpine (scopolamine methyl bromide 1 mg/kg, s.c followed 15 min later by 300 mg/kg, ip pilocarpine) or PTZ (50 mg/kg, ip) (Lian et al., 2006), animals were continuously monitored for seizure activity for at least 5 h after KA or pilocarpine and for 30 min after PTZ. Behavioral seizures were scored by an investigator blinded to the treatment. Latency to the first wet dog shake after KA, latency to the first forelimb clonus (after pilocarpine, kainic acid or PTZ) and the score and duration of seizures were measured. When at least 1 hour had passed without any head bobbing (for pilocarpine) or any wet dog shakes (for KA), seizures were considered over. Status epilepticus lasting longer than 4 hours (for KA) or 5 hours (for pilocarpine) were assigned 4 and 5 hours for seizure duration. For animals receiving PTZ, the seizure duration was defined as the period of tonic-clonic seizures. EEG recording in the hippocampus was conducted as previously described (Lian et al., 2004). After anesthesia, a recording electrode was placed in a burr hole centered at 3.0 mm posterior to bregma, 1.8 mm lateral to the midline and then lowered 3.0 mm. A ground screw and wire was placed over the frontal region in another burr hole. This assembly was fixed to the skull with dental cement.
(§3) Adult rats received either D-F1,6BP, sodium valproate (VPA, 0.3 g/kg), 2-DG (0.25, 0.5 g/kg) or normal saline (vehicle) intraperitoneally followed 1 h later by one of the convulsants. The dose for VPA was based on experimental evidence that doses from 0.1 to 0.4 g/kg (ip) are effective in animal models (Bough and Eagles, 2001; Manent et al., 2007). Three doses of F1,6BP (0.25, 0.5 and 1 g/kg) were tested with this dosing schedule. Two additional groups were administered F1,6BP (0.5 or 1 g/kg, n=5) after pilocarpine. In this experiment, the F1,6BP was given intraperitoneally at the first behavioral seizure, which was chewing movements of the jaw. Two additional sets of animals were fed the classic ketogenic diet (No. F3666; Bio-Serv, Frenchtown, N.J.). One set of animals was given the diet beginning on postnatal day 22-26 (KD-Yng) and maintained on this diet for 4 weeks. Thus the seizures were tested in this group when the animals had reached approximately the same age (50-54 days) as the majority of the animals tested.
The latency to seizure onset, seizure score and seizure duration were averaged across animals in each group. Comparisons between groups were done with an analysis of variance with Bonferroni post hoc test. Statistical difference was defined as p<0.05.

[4] = Preliminary studies of efficacy, trisodium vs dicalcium salt of FDP; format: in vivo
[5] = system: pilocarpine-induced seizures; test: Pilocarpine model of acute seizures; format: in vivo, Sprague Dawley rats
Experimental: as §1, §2
(§4) Each animal was assigned the score of the most severe seizure observed. The behavioral seizures induced by KA or pilocarpine were scored according to an adjusted version of the scale of Racine (Bough et al., 2002): stage 1, wet dog shakes after KA or trembling after pilocarpine; stage 2, head bobbing and stereotypes; stage 3, unilateral forelimb clonus; stage 4, bilateral forelimb clonus; stage 5, rearing and falling; stage 6, jumping and/or running followed by falling. Death within 24 h was assigned stage 7.
as §3, with “tested. […]” for “tested.”

[6] = system: kainic acid-induced seizures; test: Kainic acid model of acute seizures; format: in vivo, Sprague Dawley rats; settings: for animals with mild seizures (wet dog shakes or head bobbing) / animals with severe seizures: 8 animals
Experimental: as §1, §2, §4
as §3, with “tested. […]” for “tested.”

[7] = Markov et al., 2000; cited from earlier work
[8] = 1 g/kg given at first sign of seizure activity after pilocarpine

In the case of `O=C(COP(=O)(O)O)[C@@H](O)[C@H](O)[C@H](O)COP(=O)(O)O` [F1,6BP, Fructose-1,6-bisphosphate], the LD50 [1] is given as 1,068 mg/kg, the toxicity in humans ([2]; administered to humans) is given as “no reported toxicity” and the “safety in healthy volunteers” value ([2]; doses from 5 to 15 g) is given as “safe”. The “latency to the seizures” value ([3]; F1,6BP 0.25 g/kg, n=6) was 107 ± 6 s, the seizure duration ([3]; F1,6BP 0.25 g/kg, n=6) was 18 ± 2 s and the “latency to the seizures” value ([3]; F1,6BP 0.5 g/kg, n=6) was 161 ± 16 s. The seizure duration ([3]; F1,6BP 0.5 g/kg, n=6) was 12 ± 1 s, the “animals with no seizures” value ([3]; F1,6BP 1 g/kg) was “Three out of 8” and the “latency to the seizures” value ([3]; F1,6BP 1 g/kg, n=7) was 259 ± 32 s. For the same compound, the seizure duration ([3]; F1,6BP 1 g/kg, n=7) was 11 ± 3 s, the “efficacy of trisodium salt vs dicalcium salt” value [4] was “no difference in efficacy” and the “latency to forelimb clonus” value [5, 8] was “increase”. The seizure duration [5, 8] was “decrease”, the “progression of the seizures” value ([5]; 1 g/kg given at first sign of seizure activity after pilocarpine, n=5) was “significantly slowed” and the “behavioral or electrographic seizures (hippocampal EEG)” value ([5]; 4 rats pretreated with 1 g/kg) was “no behavioral or electrographic seizures”. For the same compound, the “effect on the seizure parameters” value ([5]; F1,6BP 0.25 g/kg ip 1 h before pilocarpine, n=5) was “no effect”, the “animals with a seizure score ≧3” value ([5]; F1,6BP 0.5 g/kg ip 1 h before pilocarpine) was 3 out of 10 and the “animals with a seizure score ≧3” value ([5]; F1,6BP 1 g/kg ip 1 h before pilocarpine) was 2 out of 10. For the same compound, the seizure duration ([5]; pretreated with 0.5 or 1 g/kg) was “significantly decreased”, the seizure score ([5]; pretreated with 0.5 or 1 g/kg) was “significantly decreased” and the “latency to the seizures” value ([5]; the 5 animals with score ≧3 after 0.5 or 1 g/kg pretreatment) was “significantly increased”. For the same compound, the “effect on the seizures” value ([6]; F1,6BP 0.25 g/kg, n=6) was “no effect”, the “animals with no seizures” value ([6]; F1,6BP 0.5 g/kg) was “Two out of 8” and the mean seizure score ([6]; F1,6BP 0.5 g/kg) was 2.5±0.5. The “animals with mild seizures (wet dog shakes or head bobbing)” value ([6]; F1,6BP 0.5 g/kg) was “three”, the “animals with severe seizures” value ([6]; F1,6BP 0.5 g/kg) was 3 and the onset of seizures ([6]; F1,6BP 0.5 or 1 g/kg) was “significantly delayed”. The seizure duration ([6]; F1,6BP 0.5 or 1 g/kg) was “decreased”, the seizure score ([6]; F1,6BP 0.5 or 1 g/kg) was “decreased” and the “animals with no seizures” value ([6]; F1,6BP 1 g/kg) was “Three out of 8”. For the same compound, the “average seizure score for the entire group” value ([6]; F1,6BP 1 g/kg) was 1.4±0.5, the “mean latency to first forelimb clonus” value ([6]; F1,6BP 1 g/kg) was 105 ± 7 min and the “animals with mild seizures (wet dog shakes or head bobbing)” value ([6]; F1,6BP 1 g/kg) was 3. The “animals with severe seizures” value ([6]; F1,6BP 1 g/kg) was 2 and the “FDP in blood of humans after administration of FDP” value [7] was 3.39 mg/dL.
